Measurements: ChEMBL document CHEMBL5346877, “A-ring-fused pyrazoles of dihydrotestosterone targeting prostate cancer cells via the downregulation of the androgen receptor” (Eur J Med Chem, 2023)
Calls of active or inactive are those of the source. The rule behind the calls is not given here.

Columns and labels:
[1] = Downregulation of AR protein expression in human LAPC4 cells assessed as AR levels at 10 uM incubated for 24 hrs by immunoblotting analysis; assay type: functional
LAPC4 [2] = assay: Inhibition of colony formation in human LAPC4 cells at 10 uM incubated for 10 days by crystal violet staining based assay; assay type: functional; conditions: LAPC4, 240 h, time 10 day
LAPC4 [3] = assay: Cytotoxicity against human LAPC4 cells assessed as cell viability at 20 uM incubated for 72 hrs by resazurin dye based microplate reader assay; assay type: functional; conditions: read-out: Activity
CWR22R = assay: Cytotoxicity against human 22Rv1 cells assessed as cell viability at 20 uM incubated for 72 hrs by resazurin dye based microplate reader assay; assay type: functional; conditions: read-out: Activity
DU-145 = assay: Cytotoxicity against human DU-145 cells assessed as cell viability at 20 uM incubated for 72 hrs by resazurin dye based microplate reader assay; assay type: functional; conditions: read-out: Activity
LAPC4 [4] = assay: Downregulation of PSA protein expression in human LAPC4 cells at 10 uM incubated for 24 hrs by immunoblotting analysis; assay type: functional, cell-based
LAPC4 [5] = assay: Downregulation of Nkx3.1 protein expression in human LAPC4 cells at 10 uM incubated for 24 hrs by immunoblotting analysis; assay type: functional, cell-based
LAPC4 [6] = assay: Inhibition of colony formation in human LAPC4 cells at 5 uM incubated for 10 days by crystal violet staining based assay; assay type: functional, cell-based; conditions: time 10.0 day

SMILES	Activity [1]	inhibition at 10 µM (LAPC4 [2]) [%]	viability at 20 µM (LAPC4 [3]) [%]	viability at 20 µM (CWR22R) [%]	viability at 20 µM (DU-145) [%]	Activity (LAPC4 [4])	Activity (LAPC4 [5])	inhibition (LAPC4 [6])
C[C@]12Cc3c(nn(-c4ccccc4)c3-c3ccc(O)cc3)C[C@@H]1CC[C@@H]1[C@@H]2CC[C@]2(C)C(=O)CC[C@@H]12	>=100%	39	67	57	94	inactive	inactive	
C[C@]12Cc3c(nn(-c4ccccc4)c3-c3ccc(Cl)cc3)C[C@@H]1CC[C@@H]1[C@@H]2CC[C@]2(C)C(=O)CC[C@@H]12	>=100%	91	83	93	98	inactive	inactive	
C[C@]12Cc3cn(-c4ccc(F)cc4)nc3C[C@@H]1CC[C@@H]1[C@@H]2CC[C@]2(C)[C@@H](O)CC[C@@H]12	>=100%	66	95	≥ 100	≥ 100	inactive	inactive	
Cc1ccc(-n2cc3c(n2)C[C@@H]2CC[C@@H]4[C@H](CC[C@]5(C)[C@@H](O)CC[C@@H]45)[C@@]2(C)C3)cc1	>=100%	42	≥ 100	≥ 100	100	inactive	inactive	
C[C@]12Cc3cnn(-c4ccc(Cl)cc4)c3C[C@@H]1CC[C@@H]1[C@@H]2CC[C@]2(C)[C@@H](O)CC[C@@H]12	>=100%	0	49	80	91	Active	Active	
Cc1c2c(nn1C)C[C@@H]1CC[C@@H]3[C@H](CC[C@]4(C)[C@@H](O)CC[C@@H]34)[C@@]1(C)C2	98%	36	52	52	98	inactive	inactive	
C[C@]12Cc3cnn(-c4ccccc4)c3C[C@@H]1CC[C@@H]1[C@@H]2CC[C@]2(C)[C@@H](O)CC[C@@H]12	>=100%	1	60	36	97	Active	Active	
COc1ccc(-n2cc3c(n2)C[C@@H]2CC[C@@H]4[C@H](CC[C@]5(C)[C@@H](O)CC[C@@H]45)[C@@]2(C)C3)cc1	>=100%	65	99	≥ 100	≥ 100	inactive	inactive	
C[C@]12Cc3c(nn(-c4ccccc4)c3-c3ccc(O)cc3)C[C@@H]1CC[C@@H]1[C@@H]2CC[C@]2(C)[C@@H](O)CC[C@@H]12	>=100%	22	63	37	57	inactive	inactive	
Cc1ccc(-c2c3c(nn2C)C[C@@H]2CC[C@@H]4[C@H](CC[C@]5(C)[C@@H](O)CC[C@@H]45)[C@@]2(C)C3)cc1	96%	28	52	36	98			Active
COc1ccc(-c2c3c(nn2C)C[C@@H]2CC[C@@H]4[C@H](CC[C@]5(C)[C@@H](O)CC[C@@H]45)[C@@]2(C)C3)cc1	85%	5	51	33	≥ 100			Active
C[C@]12Cc3cn(-c4ccccc4)nc3C[C@@H]1CC[C@@H]1[C@@H]2CC[C@]2(C)[C@@H](O)CC[C@@H]12	>=100%	59	100	≥ 100	≥ 100	inactive	inactive	
Cn1nc2c(c1-c1ccc(F)cc1)C[C@@]1(C)[C@@H](CC[C@@H]3[C@@H]1CC[C@]1(C)C(=O)CC[C@@H]31)C2	100%	17	29	57	90			Active
C[C@]12Cc3cn(-c4ccc(Cl)cc4)nc3C[C@@H]1CC[C@@H]1[C@@H]2CC[C@]2(C)[C@@H](O)CC[C@@H]12	>=100%	98	82	≥ 100	≥ 100	inactive	inactive	
Cc1c2c(nn1C)C[C@@H]1CC[C@@H]3[C@H](CC[C@]4(C)C(=O)CC[C@@H]34)[C@@]1(C)C2	86%	67	53	103	≥ 100	inactive	inactive	
C[C@]12Cc3cn(-c4ccc([N+](=O)[O-])cc4)nc3C[C@@H]1CC[C@@H]1[C@@H]2CC[C@]2(C)[C@@H](O)CC[C@@H]12	>=100%	93	96	≥ 100	99	inactive	inactive	
Cn1nc2c(c1-c1ccco1)C[C@@]1(C)[C@@H](CC[C@@H]3[C@@H]1CC[C@]1(C)C(=O)CC[C@@H]31)C2	97%	5	39	43	100			Active
C[C@]12Cc3c(nn(-c4ccccc4)c3-c3ccccc3)C[C@@H]1CC[C@@H]1[C@@H]2CC[C@]2(C)C(=O)CC[C@@H]12	>=100%	19	61	19	19	inactive	inactive	
C[C@]12Cc3cn(-c4ccc(C#N)cc4)nc3C[C@@H]1CC[C@@H]1[C@@H]2CC[C@]2(C)[C@@H](O)CC[C@@H]12	>=100%	76	93	94	97	inactive	inactive	
C[C@]12Cc3cn(-c4ccc(Br)cc4)nc3C[C@@H]1CC[C@@H]1[C@@H]2CC[C@]2(C)[C@@H](O)CC[C@@H]12	>=100%	24	79	83	≥ 100	inactive	inactive	
C[C@]12Cc3c(nn(-c4ccccc4)c3-c3ccc(Cl)cc3)C[C@@H]1CC[C@@H]1[C@@H]2CC[C@]2(C)[C@@H](O)CC[C@@H]12	>=100%	47	30	4	5	inactive	inactive	
Cc1ccc(-n2ncc3c2C[C@@H]2CC[C@@H]4[C@H](CC[C@]5(C)[C@@H](O)CC[C@@H]45)[C@@]2(C)C3)cc1	>=100%	0	70	97	96	Active	Active	
